Assay results: patent US20220280594A1, “APPLICATION OF POLYPEPTIDE OR DERIVATIVE THEREOF” (CHENGDU HUITAI BIOMEDICINE CO., LTD., priority 2019, published 2022)
Ends that are not written are not given here. PEG = not defined here

Experiments:
Type in all cases: cell-based
[1] = test system: human pancreatic cancer cells (PANC-1); assay: scratch assay, migration of PANC-1 cells; conditions: PANC-1, 10 μM, 48 hours; control group 66.65 ± 3.37
Method: (§1) In the scratch assay, the cell migration rate was negatively correlated with the inhibitory effect of the drug component on tumor cell migration ability. The cell migration inhibition experiment was described as follows: tumor cells were cultured in vitro, cells in logarithmic growth phase were collected and seeded evenly in a 24-well plate at a density of 1-2×10^5 cells/well; the cells were cultured in a cell incubator until a monolayer was formed; a scratch tool was used to make a “-” (straight) scratch on the monolayer of cells; the cells were washed 1-3 times with PBS, and a medium (with 2% fetal bovine serum) containing specific test components was added to the culture. Experimental grouping: PBS control group; polypeptide or derivative thereof treatment group (N1-N54), 10 μM. Three independent parallel wells were set up in each group, and the cells were cultured continuously in a cell incubator for 48 hours. […] At least 3 representative images for each well were taken. ImageJ software was used to count the migration distance of the cells, and the cell migration rate was calculated as: cell migration rate (%)=(width of original scratch−width of current scratch)/width of original scratch×100.
This example was a scratch assay to evaluate the inhibitory effect of the polypeptide or derivative thereof (N1-N54) on the migration ability of human pancreatic cancer cells (PANC-1). The experimental method was as described in Example 2.

[2] = test system: human liver adenocarcinoma cells (SK-HEP-1); assay: transwell migration assay, SK-HEP-1 cells; conditions: SK-HEP-1 transwell migration, 10 μM, 24 hours; control group 1 782 ± 108, control group 2 768 ± 86
Method: The Transwell chamber system was used in the transwell cell migration experiment. The chamber has an upper layer and a lower layer, which are separated by an artificial semipermeable membrane in the middle. Cells that have migrated through the semi-permeable membrane will attach to the lower surface of the semi-permeable membrane. The migration ability is evaluated by counting the number of cells on the lower surface of the semi-permeable membrane. The number of cells that have migrated is negatively correlated with the inhibitory effect of the drug on the migration ability of the tumor cells. Transwell migration assay was performed as follows: tumor cells were cultured in vitro, cells in logarithmic growth phase were collected, and cell suspension was prepared with fresh serum-free medium at a density of 2-3×10^5 cells/mL. Cells were inoculated, 100 μL/well cell suspension (serum-free medium) in the upper chamber and 600 μL/well complete culture medium in the lower chamber. After incubated in 37° C., 5% CO2 incubator for 4-5 hours, serum-free medium (100 μL/well) was added to the control group, and serum-free medium containing polypeptide or derivative thereof (N1-N54) was added to the upper chamber of the treatment group (100 μL/well), the final concentration of the peptide or derivative thereof in the upper chamber was 10 μM. The cells were incubated continuously for 24 hours, and then fixed with methanol and stained with crystal violet. Images were taken under a microscope and the number of migrated cells was counted with ImageJ.
This example was a transwell cell migration experiment to evaluate the inhibitory effect of the polypeptide or derivative thereof (N1-N54) on the migration ability of human liver adenocarcinoma cells (SK-HEP-1). The experimental method was as described in Example 3.

[3] = test system: human liver adenocarcinoma cells (SK-HEP-1); assay: transwell invasion assay, SK-HEP-1 cells; conditions: SK-HEP-1 transwell invasion, 10 μM, 24 hours; control group 767 ± 91
Source text: The Transwell chamber system was used in the transwell cell invasion experiment. The chamber has an upper layer and a lower layer, which are separated by an artificial semipermeable membrane in the middle. The upper surface of the semipermeable membrane is coated with a layer of artificial matrigel to simulate extracellular matrix. Cells that have invaded through the matrigel and semi-permeable membrane will attach to the lower surface of the semi-permeable membrane. The invasion ability is evaluated by counting the number of cells on the lower surface of the semi-permeable membrane. The number of cells that have invaded is negatively correlated with the inhibitory effect of the drug on the invasion ability of the tumor cells. Transwell invasion assay was performed as follows: tumor cells were cultured in vitro, cells in logarithmic growth phase were collected, and cell suspension was prepared with fresh serum-free medium at a density of 2-3×10^5 cells/mL. Cells were inoculated, 100 μL/well cell suspension (serum-free medium) in the upper chamber and 600 μL/well complete culture medium in the lower chamber. After incubated in 37° C., 5% CO2 incubator for 4-5 hours, serum-free medium (100 μL/well) was added to the control group, and serum-free medium containing polypeptide or derivative thereof (N1-N54) was added to the upper chamber of the treatment group (100 μL/well), the final concentration of the peptide or derivative thereof in the upper chamber was 10 μM. The cells were incubated continuously for 24 hours, and then fixed with methanol and stained with crystal violet. Images were taken under a microscope and the number of invaded cells was counted with ImageJ.
This example was a transwell cell invasion experiment to evaluate the inhibitory effect of the polypeptide or derivative thereof (N1-N54) on the invasion ability of human liver adenocarcinoma cells (SK-HEP-1). The experimental method was as described in Example 4.

[4] = test system: human breast cancer cells (MDA-MB-231); assay: scratch assay, migration of MDA-MB-231 cells; conditions: MDA-MB-231, 10 μM, 48 hours; control group 36.19 ± 5.15
Method: as §1
This example was a scratch assay to evaluate the inhibitory effect of the polypeptide or derivative thereof (N1-N54) on the migration ability of human breast cancer cells (MDA-MB-231). The experimental method was as described in Example 2.

[5] = test system: human melanoma cells (A375); assay: scratch assay, migration of A375 cells; conditions: A375, 10 μM, 48 hours; control group 44.03 ± 6.21
Method: as §1
This example was a scratch assay to evaluate the inhibitory effect of the polypeptide or derivative thereof (N1-N54) on the migration ability of human melanoma cells (A375). The experimental method was as described in Example 2.

[6] = test system: human pharyngeal squamous-cell carcinoma cells (Fadu); assay: scratch assay, migration of Fadu cells; conditions: 10 μM, 48 hours, control group 28.76 ± 4.08
Method: as §1
This example was a scratch assay to evaluate the inhibitory effect of the polypeptide or derivative thereof (N1-N54) on the migration ability of human pharyngeal squamous-cell carcinoma cells (Fadu). The experimental method was as described in Example 2.

[7] = test system: human colon cancer cells (HCT-116); assay: scratch assay, migration of HCT-116 cells; conditions: HCT-116, 10 μM, 48 hours; control group 47.78 ± 6.07
Method: as §1
This example was a scratch assay to evaluate the inhibitory effect of the polypeptide or derivative thereof (N1-N54) on the migration ability of human colon cancer cells (HCT-116). The experimental method was as described in Example 2.

[8] = test system: human prostate cancer cells (22RV1); assay: scratch assay, migration of 22RV1 cells; conditions: 22RV1, 10 μM, 48 hours; control group 25.41 ± 5.01
Method: as §1
This example was a scratch assay to evaluate the inhibitory effect of the polypeptide or derivative thereof (N1-N54) on the migration ability of human prostate cancer cells (22RV1). The experimental method was as described in Example 2.

Substance	Migration rate (%) (mean ± SD, P) [1]	Number of cells (mean ± SD, P), migrated cells [2]	Number of cells (mean ± SD, P), invaded cells [3]	Migration rate (%) (mean ± SD, P) [4]	Migration rate (%) (mean ± SD, P) [5]	Migration rate (%) (mean ± SD, P) [6]	Migration rate (%) (mean ± SD, P) [7]	Migration rate (%) (mean ± SD, P) [8]
N1: polypeptide with the amino acid sequence set forth in SEQ ID NO: 1 (YRVRFLAKENVTQDAEDN)	18.89 ± 6.68,*** %	87 ± 10,****	343 ± 38,***	21.83 ± 3.73,* %	8.49 ± 2.99,*** %	5.68 ± 2.86,*** %	10.27 ± 3.64,*** %	7.26 ± 3.36,** %
N2: SEQ ID NO: 1 with deletion of one amino acid (position 18) at the carboxyl terminal (YRVRFLAKENVTQDAED)	32.74 ± 4.26,** %	104 ± 10,****	432 ± 47,**	20.92 ± 2.16,* %	6.52 ± 1.25,*** %	10.71 ± 2.30,** %	23.42 ± 6.12,** %	6.48 ± 2.97,** %
N3: SEQ ID NO: 1 with deletion of position 18 and PEG modification at the amino terminal ({PEG}-YRVRFLAKENVTQDAED; reading uncertain)	29.67 ± 5.64,*** %	112 ± 10,****	372 ± 62,***	21.98 ± 2.74,* %	4.91 ± 1.19,*** %	12.97 ± 3.58,** %	22.06 ± 4.59,** %	6.15 ± 4.65,** %
N4: SEQ ID NO: 1 with deletion of positions 15-18 and positions 1-3 (RFLAKENVTQD)	19.04 ± 8.54,*** %	357 ± 21,***	411 ± 75,**	21.44 ± 2.59,* %	5.06 ± 2.32,*** %	14.32 ± 2.67,** %	25.48 ± 2.79,** %	13.44 ± 3.24,* %
N5: SEQ ID NO: 1 with addition of one amino acid at the carboxyl terminal and deletion of positions 1-3 (RFLAKENVTQDAEDNC)	21.63 ± 6.16,*** %	167 ± 12,****	353 ± 52,***	22.13 ± 3.22,* %	9.82 ± 3.84,*** %	9.07 ± 2.08,*** %	12.75 ± 2.82,*** %	10.37 ± 3.53,* %
N6: SEQ ID NO: 1 with deletion of four amino acids at the carboxyl terminal (positions 15-18) (YRVRFLAKENVTQD)	36.66 ± 5.57,** %	157 ± 13,****	145 ± 29,****	17.42 ± 4.98,* %	11.22 ± 1.65,*** %	11.34 ± 2.04,** %	18.13 ± 2.68,** %	12.31 ± 2.85,* %
N7: SEQ ID NO: 1 with addition of one amino acid at the carboxyl terminal and substitution A15R (YRVRFLAKENVTQDREDNC)	37.07 ± 7.83,** %	127 ± 16,****	463 ± 52,**	21.04 ± 2.46,* %	8.95 ± 1.27,*** %	13.12 ± 3.56,** %	20.09 ± 2.41,** %	6.54 ± 2.24,** %
N8: SEQ ID NO: 1 with deletion of positions 15-18 and positions 3, 4 and 11 (YRFLAKENTQD)	35.11 ± 5.96,** %	139 ± 13,****	277 ± 38,****	19.02 ± 3.53,* %	4.74 ± 1.84,*** %	9.54 ± 5.75,** %	16.96 ± 3.87,** %	8.75 ± 1.98,** %
N9: SEQ ID NO: 1 with deletion of positions 15-18 and PEG modification at the amino terminal ({PEG}-YRVRFLAKENVTQD; reading uncertain)	29.12 ± 5.84,*** %	174 ± 15,****	288 ± 35,***	15.96 ± 3.92,* %	8.96 ± 2.46,*** %	16.82 ± 3.57,* %	25.96 ± 3.84,** %	14.84 ± 2.96,* %
